Source: patent publication US4400510A, “A-32256 Phenazine antibiotic” (Eli Lilly and Company, priority 1981, dated 1983)
≈ marks a conversion by molar mass, not a printed value. Read-outs that look alike come from different tables or passages of the source.

Legend:
[1] = tested on: Staphylococcus aureus; test: agar-dilution screening procedure, MIC; format: cell-based
Procedure: (§1) The agar-dilution procedure described by the International Collaborative Study (ICS) group was used to determine MIC values.
(§2) The results obtained from tests of antibiotic A-32256 in the agar-dilution screening procedure are recorded in Table 5, which follows.

[2] = tested on: Streptococcus faecalis; test: agar-dilution screening procedure, MIC; format: cell-based; details: Enterococcus faecalis, S. faecalis X66
Procedure: as §1, §2

[3] = tested on: Peptococcus asaccharolyticus; test: agar-dilution MIC vs. anaerobic bacteria; format: cell-based; details: strain 1302; Table 6
[4] = tested on: Propionibacterium acnes; test: agar-dilution MIC vs. anaerobic bacteria; format: cell-based; details: strain 79; Table 6
[5] = tested on: Bacteroides melanogenicus; test: agar-dilution MIC vs. anaerobic bacteria; format: cell-based; details: Table 6
[6] = tested on: Bacteroides corrodens; test: agar-dilution MIC vs. anaerobic bacteria; format: cell-based; details: Eikenella corrodens; strain 1874; Table 6
[7] = tested on: Fusobacterium symbiosum; test: agar-dilution MIC vs. anaerobic bacteria; format: cell-based; details: strain 1470; Table 6
[8] = tested on: Peptococcus asaccharolyticus; test: agar-dilution MIC vs. Peptococcus and Peptostreptococcus species; format: cell-based; details: Table 9
Procedure: as §1
(§3) The MIC values were determined by the agar-dilution method, and are recorded in Table 9, which follows.

[9] = tested on: Peptococcus constellatus; test: as above; format: cell-based; details: Pc. constellatus 1468; Table 9
Procedure: as §1, §3

[10] = tested on: Peptococcus magnus; test: as above; format: cell-based; details: Table 9
Procedure: as §1, §3

[11] = tested on: Peptococcus prevoti; test: as above; format: cell-based; details: Table 9
Procedure: as §1, §3

[12] = tested on: Peptostreptococcus anaerobius; test: as above; format: cell-based; details: Table 9
Procedure: as §1, §3

[13] = tested on: Peptostreptococcus intermedius; test: as above; format: cell-based; details: Table 9
Procedure: as §1, §3

[14] = improvement of ruminant feed efficiency; format: in vivo
Procedure: Suitable rates of administration are in the range of from about 10 to about 100 g/ton (from about 11 to about 111 ppm) of feed, or from about 0.25 mg to about 2.9 mg/kg of body weight of the ruminant. The preferred level of administration of A-32256 is from about 0.5 to about 1 mg/kg of body weight of ruminant, or about 50 g/ton of feed.

In the case of `Cc1cccc(O)c1C(=O)OC(C)c1cccc2nc3c(C(=O)O)cccc3nc12` (centres unmarked) [Antibiotic A-32256, 6-[1-[(2-hydroxy-6-methylbenzoyl)oxy]-ethyl]-1-phenazinecarboxylic acid], the MIC ([1]; S. aureus 3055, benzylpenicillin-susceptible) was 1 µg/mL (≈ 2.49 µM), the MIC ([1]; S. aureus 3074, benzylpenicillin-resistant) was < 0.5 µg/mL and the MIC [2] was 4 µg/mL (≈ 9.94 µM). For the same compound, the MIC [3] was 16 µg/mL (≈ 39.8 µM), the MIC [4] was 2 µg/mL (≈ 4.97 µM) and the MIC ([5]; Bacteroides, strain 1856/28, read-out: MIC) was 16 µg/mL (≈ 39.8 µM). For the same compound, the MIC ([5]; strain 2736) was 16 µg/mL (≈ 39.8 µM), the MIC [6] was ≤ 0.5 µg/mL and the MIC [7] was 2 µg/mL (≈ 4.97 µM). It also gave an MIC ([8]; Pc. asaccharolyticus 1302) of 2 µg/mL (≈ 4.97 µM), an MIC ([8]; Pc. asaccharolyticus 1344) of 2 µg/mL (≈ 4.97 µM) and an MIC [9] of 8 µg/mL (≈ 19.9 µM). The MIC ([10]; Pc. magnus 1401) was 2 µg/mL (≈ 4.97 µM), the MIC ([10]; Pc. magnus 1421) was 0.5 µg/mL (≈ 1.24 µM) and the MIC ([10]; Pc. magnus 1477) was 0.5 µg/mL (≈ 1.24 µM). The MIC ([11]; Pc. prevoti 1281) was 2 µg/mL (≈ 4.97 µM), the MIC ([11]; Pc. prevoti 1293) was 16 µg/mL (≈ 39.8 µM) and the MIC ([11]; Pc. prevoti 1407) was 2 µg/mL (≈ 4.97 µM). The MIC ([12]; Peptostreptococcus anaerobius, Ps. anaerobius 1428, read-out: MIC) was ≤ 0.125 µg/mL, the MIC ([12]; Ps. anaerobius 8) was 2 µg/mL (≈ 4.97 µM) and the MIC ([12]; Ps. anaerobius 52) was 8 µg/mL (≈ 19.9 µM). For the same compound, the MIC ([12]; Ps. anaerobius 59) was 0.5 µg/mL (≈ 1.24 µM), the MIC ([12]; Ps. anaerobius 1418) was 0.25 µg/mL (≈ 0.621 µM) and the MIC ([12]; Ps. anaerobius 1451) was 0.5 µg/mL (≈ 1.24 µM). For the same compound, the MIC ([12]; Ps. anaerobius 1477) was 8 µg/mL (≈ 19.9 µM), the MIC ([13]; Ps. intermedius 1264) was 2 µg/mL (≈ 4.97 µM) and the MIC ([13]; Ps. intermedius 1524, read-out: MIC) was ≤ 0.125 µg/mL. The MIC ([13]; Ps. intermedius 1624) was 8 µg/mL (≈ 19.9 µM) and the “improvement of ruminant feed efficiency” value [14] was “has shown utility for the improvement of ruminant feed efficiency”.
